Like-named read-outs stand apart in the source and are kept apart here.
Columns and labels:
[1] = target: T1, YFP-tagged full length 0N4R-Tau P301S aggregates seeded by 416-AD11A lysate (T24 cells) (Homo sapiens, UniProt P10636, P618S); experiment: Tau-AD high throughput screening (counter screen) in T24 cells; assay type: cell-based; settings: T24 cells transfected with 416-AD11A lysate
T1 construct: C-terminally YFP-tagged full length 0N4R-Tau carrying a P301S mutation; expressed in transfected cells
Method: A fragment of the Middle Tempral Gyrus (MTG) from Alzheimer's Disease (AD) patient 2217 was resuspended in 9 volumes of PBS (ml/g of brain) and homogenized 3×12 seconds using a probe homogenizer (Thomas Scientific) with disposable Omni Tip plastic homogenizing probes (Thomas Scinetific Cat No 3409Y77) to generate a 10% brain homogenate (10% AD11-BH). The 10% AD11-BH was clarified of insoluble debris by centrifugation at 800×g for 5 minutes. The resulting supernatant was collected and the protein concentration of this clarified BH (AD11-CBH) was determined by bicinchoninic acid assay (BCA) (Thermo Fisher Cat No. 23227). HEK293 cells stably expressing a C-terminally Clover-tagged truncated 4R-Tau^243-382 transgene containing the P301L and V337M mutations and a C-terminally Ruby-tagged truncated 3R-Tau^243-382 transgene containing the L266V and V337M mutations (128/139 cells) were transfected with the AD11-CBH using lipofectamine 2000 (LF2K) (Thermo Fisher Cat No. 11668500). Briefly, 0.32 μl of LF2K were diluted in 5 μl Opti-MEM (Thermo Scientific Cat No 31985070) per well of a 384-well plate and incubated for 5 min at room temperature (RT). This mixture was added to 0.32 μg of AD11-CBH diluted in 5 μl of PBS per well of a 384-well plate and vortex briefly. The transfection mixture was incubated at room temperature for 90 min. The transfection complexes were subsequently added to a single well of a 384-well plate containing 3500 128/139 cells. After 3 days the cells were harvested, counted and plated at a density of 1 cell/well in a 96-well plate. A clonal cell line containing Clover and Ruby positive Tau aggregates was selected and termed 416-AD11A cells. Following the expansion of these 416-AD11A cells, a cell lysate was prepared by freeze/thaw. The cells from a confluent T175 flask were harvested in 1 ml of PBS containing 1× protease inhibitor cocktail by scraping. The cell suspension was subjected to 4 cycles of freezing in liquid nitrogen for 5 minutes followed by thawing at 37° C. for 5 minutes. The resulting cell lysate was centrifuged at 2000 RPM for 10 minutes to remove the cell debris and the protein concentration of the resulting 416-AD11A lysate was determined by BCA assay and aliquots frozen for future use.
HEK293 cells stably expressing C-terminally YFP-tagged full length 0N4R-Tau carrying a P301S mutation (T24 cells) are plated at a density of 4000 cells per well of a 384-well black walled, clear bottom plate (Greiner Cat No 5678-1091Q) in 60 μl of complete DMEM (DMEM (Corning Cat No 10-013-CV), 10% FBS (VWR Cat No 97068-085, 0.5% Penicilin/streptomycin (Gibco Cat No 15140-122)) containing 0.1 μg/ml Hoechst Dye (Thermo Scientific Cat No H3570). Transfection complexes are prepared by diluting 0.15 μg of 416-AD11A lysate or HEK lysate in 5 μl of PBS per well to be transfected and 0.15 μl of Lipofectamine 2000 (LF2K) (ThermoFisher Cat No 11668500) in 5 μl of Opti-MEM per well to be transfected in separate tubes. The pre-diluted 416-AD11A or HEK lysates and LF2K are subsequently mixed and allowed to incubate for 90 minutes at RT. A 10 μl aliquot of the 416-AD11A or HEK transfection complexes is added to the appropriate wells of the 384-well plate containing the T24 cells using the Bravo liquid handling platform (Agilent). Wells A23-P24 of the 384-well plate are transfected with HEK lysate to act as a reference point for spontaneous aggregation of 0N4R^P301S and for transfection related toxicity. The dilution of test compounds is performed using the Bravo liquid handling platform (Agilent). The control is DMSO in the absence of any test compound. Briefly, 1 μl of each test compound (5 mM stock) in the 384-well test plate was transferred to a 384-well plate (Greiner Cat No 781280) containing 61.5 μl of complete DMEM to generate a working stock of compounds at 80 μM. […]

[2] = Parallel Artificial Membrane Permeability Assay (PAMPA); assay type: in vitro ADME; settings: for Papp at 4 hr, 200 uM: PAMPA, read-out: PAMPA: P_app; for PAMPA: P_app: 200 uM test compound, 4 hr
Method: 5 uL of 1% lecithin (VWR 0579) dissolved in n-dodecane (Sigma Aldrich D221104) was applied to each well of a MultiScreen IP PAMPA filter plate (Millipore MAIPSWU10) and allowed to equilibrate for 5 minutes. 300 uL of PBS was added to the acceptor plate and 150 uL of 200 uM test compound dissolved in PBS and 30% ethanol was added to the donor wells before incubating the donor plate in the acceptor plate for 4 hr at 500 rpm. 100 uL was sampled from the donor and acceptor wells and the concentrations were measured by liquid chromatography-mass spectrometry (SCIEX 4500) or UV-VIS plate reader (BMG).

T1 sequence (P10636 1-383 isoform P10636-6 P243S): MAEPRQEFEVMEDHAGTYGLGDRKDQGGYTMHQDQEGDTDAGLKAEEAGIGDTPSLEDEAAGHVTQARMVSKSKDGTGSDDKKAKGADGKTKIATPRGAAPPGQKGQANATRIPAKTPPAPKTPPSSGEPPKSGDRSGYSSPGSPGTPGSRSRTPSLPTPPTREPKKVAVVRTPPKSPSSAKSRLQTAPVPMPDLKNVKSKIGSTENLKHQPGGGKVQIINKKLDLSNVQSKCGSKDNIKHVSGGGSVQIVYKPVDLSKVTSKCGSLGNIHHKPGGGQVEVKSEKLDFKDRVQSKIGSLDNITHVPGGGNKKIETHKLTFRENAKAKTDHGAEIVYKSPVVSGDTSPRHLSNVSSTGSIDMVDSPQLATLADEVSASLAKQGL

| Structure (SMILES) | AD Tau Aggregates (% control) [1] [% control] | other results |
| --- | --- | --- |
| CNc1nc(=O)n(-c2nc(-c3ccc(Cl)cc3)oc2-c2ccc(Cl)c(F)c2)cc1F.Cl [Compound 126, 1-(5-(4-chloro-3-fluorophenyl)-2-(4-chlorophenyl)oxazol-4-yl)-5-fluoro-4-(methylamino)pyrimidin-2(1H)-one hydrochloride] | 93 |  |
| CCNc1nc(=O)n(-c2nc(-c3ccc(Cl)cc3)oc2-c2ccc(Cl)c(F)c2)cc1F [Compound 127, 1-(5-(4-chloro-3-fluorophenyl)-2-(4-chlorophenyl)oxazol-4-yl)-4-(ethylamino)-5-fluoropyrimidin-2(1H)-one] | 105 |  |
| CNc1nc(=O)n(-c2nc(-c3ccc(C)s3)oc2-c2ccc(Cl)c(F)c2)cc1F [Compound 132, 1-(5-(4-chloro-3-fluorophenyl)-2-(5-methylthiophen-2-yl)oxazol-4-yl)-5-fluoro-4-(methylamino)pyrimidin-2(1H)-one] | 95 |  |
| CNc1nc(=O)n(-c2nc(-c3cccc(C)c3)oc2-c2ccc(F)c(F)c2)cc1F.Cl [Compound 133, 1-(5-(3,4-difluorophenyl)-2-(m-tolyl)oxazol-4-yl)-5-fluoro-4-(methylamino)pyrimidin-2(1H)-one hydrochloride] | 92 |  |
| CNc1nc(=O)n(-c2nc(-c3cccc(C)c3)oc2-c2cc(Cl)cs2)cc1F [Compound 135, 1-(5-(4-chlorothiophen-2-yl)-2-(m-tolyl)oxazol-4-yl)-5-fluoro-4-(methylamino)pyrimidin-2(1H)-one] | 100 |  |
| O=C(Cn1cc(-c2ccoc2)c(=O)c2ccc(N3CCCC3)cc21)Nc1ccccc1C(F)(F)F [Compound 149, 2-[3-(furan-3-yl)-4-oxo-7-(pyrrolidin-1-yl)-1,4-dihydroquinolin-1-yl]-N-[2-(trifluoromethyl)phenyl]acetamide] | 100 | Papp at 4 hr, 200 uM ([2]; pH 5.0, 200 uM test compound): 16.9 ×10⁻⁶ cm/s; Papp at 4 hr, 200 uM ([2]; pH 7.4, 200 uM test compound): 11.2 ×10⁻⁶ cm/s |
| CC(=O)Cc1nccc2cc(-c3nc(-n4ccc5cccnc5c4=O)c(-c4ccc(C(F)(F)F)cc4)o3)ccc12 [Compound 176, 7-(2-(1-(2-oxopropyl)isoquinolin-6-yl)-5-(4-(trifluoromethyl)phenyl)oxazol-4-yl)-1,7-naphthyridin-8(7H)-one] | 96 |  |
| CC(O)COc1ccc(-c2nc(-n3cc4ccoc4nc3=O)c(-c3ccc(F)cc3)o2)cc1 (stereo not drawn) [Compound 182, 3-[5-(4-fluorophenyl)-2-[4-(2-hydroxypropoxy)phenyl]-1,3-oxazol-4-yl]-2H,3H-furo[2,3-d]pyrimidin-2-one] | 93 |  |
| Cc1cc(-c2nc(-n3cc4ccn(C5CC5)c4nc3=O)c(-c3ccc(Cl)c(F)c3)o2)ccn1 [Compound 232, 3-[5-(4-chloro-3-fluorophenyl)-2-(2-methylpyridin-4-yl)-1,3-oxazol-4-yl]-7-cyclopropyl-2H,3H,7H-pyrrolo[2,3-d]pyrimidin-2-one] | 91 |  |
| Cc1cc(-c2nc(-n3cc4ccn(C5CC5)c4nc3=O)c(-c3ccc(F)c(F)c3)o2)ncc1F [Compound 234] | 85 |  |
| Cc1ccnn1-c1nc(-n2cc3ccn(C(F)(F)F)c3nc2=O)c(-c2ccc(F)cc2)o1 [Compound 240] | 95 | PAMPA: P_app ([2]; pH 7.4): 2.41 ×10e−6 cm/sec |
| Cc1ccn(-c2nc(-n3cc4ccn(C(F)(F)F)c4nc3=O)c(-c3ccc(F)cc3)o2)n1 [Compound 241] | 98 | PAMPA: P_app ([2]; pH 7.4): 1.36 ×10e−6 cm/sec |
| O=c1nc2c(ccn2C(F)(F)F)cn1-c1nc(N2Cc3ccccc3C2)oc1-c1ccc(F)cc1 [Compound 242] | 99 | PAMPA: P_app ([2]; pH 7.4): 5.72 ×10e−6 cm/sec |
| CNC(=O)c1ncc2c(-c3ccccc3Cl)nn(-c3ccc(F)cc3)c2n1 [Compound 244] | 100 | PAMPA: P_app ([2]; pH 5.0): >50 ×10e−6 cm/sec; PAMPA: P_app ([2]; pH 7.4): 45 ×10e−6 cm/sec |
| CCc1ccccc1-c1nn(-c2ccc(F)cc2)c2nc(C(=O)NC)ncc12 [Compound 245] | 120 | PAMPA: P_app ([2]; pH 5.0): >50 ×10e−6 cm/sec; PAMPA: P_app ([2]; pH 7.4): >50 ×10e−6 cm/sec |
| CNC(=O)c1ncc2c(-c3ccccc3)nn(-c3ccc(F)cc3)c2n1 [Compound 246] | 120 | PAMPA: P_app ([2]; pH 5.0): >50 ×10e−6 cm/sec; PAMPA: P_app ([2]; pH 7.4): >50 ×10e−6 cm/sec |
| CNC(=O)c1ncc2c(N3CCCC3)nn(-c3ccc(F)cc3)c2n1 [Compound 247, 1-(4-fluorophenyl)-N-methyl-3-(pyrrolidin-1-yl)-1H-pyrazolo[3,4-d]pyrimidine-6-carboxamide] | 120 |  |
| CNC(=O)c1ncc2c(-c3cc4c(cnn4C)cc3F)nn(Cc3ccccc3)c2n1 [Compound 253] | 96 |  |
| CNC(=O)c1ncc2c(-c3cccc4c3OC(F)(F)O4)nn(Cc3ccccc3)c2n1 [Compound 254] | 100 |  |
| CNC(=O)c1ncc2c(-c3ccc(F)cc3)nn(C3CCc4ccc(F)cc43)c2n1 (stereo not drawn) [Compound 257, 1-(6-fluoro-2,3-dihydro-1H-inden-1-yl)-3-(4-fluorophenyl)-N-methyl-1H-pyrazolo[3,4-d]pyrimidine-6-carboxamide] | 100 |  |
| CNC(=O)c1ncc2c(-c3ccc(F)cc3)nn(CC3CCCCC3)c2n1 [Compound 258] | 110 |  |
| CNC(=O)c1ncc2c(-c3ccc(F)cc3)nn(Cc3ccnc(F)c3)c2n1 [Compound 259] | 99 |  |
| CNC(=O)c1ncc2c(-c3ccc(F)cc3)nn(Cc3cccc(F)c3)c2n1 [Compound 260] | 95 |  |
| CNC(=O)c1ncc2c(-c3ccc(F)cc3)nn(Cc3ccc(F)cc3)c2n1 [Compound 261] | 87 |  |
| CC(=O)Nc1ncc2c(-c3ccccc3)nn(C(C)c3ccccc3)c2n1 (stereo not drawn) [Compound 265] | 110 |  |
| CC(=O)Nc1ncc2c(-c3ccccc3C#N)nn(Cc3ccccc3)c2n1 [Compound 268] | 105 |  |
| CNc1ncc2c(-c3ccccc3)nn(-c3ccccc3)c2n1 [Compound 286, N-methyl-1,3-diphenyl-1H-pyrazolo[3,4-d]pyrimidin-6-amine] | 100 |  |
| CNC(=O)c1ncc2c(-c3ccccc3)cn(-c3ccccc3)c2n1 [Compound 291, N-methyl-5,7-diphenyl-7H-pyrrolo[2,3-d]pyrimidine-2-carboxamide] | 110 |  |

Reference: patent publication US20240197682A1, “METHOD FOR TREATING NEUROLOGICAL DISEASES USING SUPRAMOLECULE POLYMER THERAPEUTICS” (The Regents of the University of California, priority 2022, published 2024)
